Assay [1] concerns the target T1, wild-type PAH (Homo sapiens (Human), UniProt P00439). The assay can be described thus: Phenylalanine hydroxylase enzyme activity assay in transfected COS7 cells. It is filed as cell-based. The following applies: compound 10 μM (sepiapterin 5 μM), 48 h. How it is done:
(§1) 2. Phenylalanine Hydroxylase Enzyme Activity Assay
(§2) This assay was completed in cell culture to analyze the enzyme activity in the presence of compounds. In brief, wild-type or Arg261Gln PAH constructs were transiently expressed in COS7-cells in a 96 well format reflecting the PAH genotype (COS7 cell line has no endogenous PAH). Cells were treated with the compounds at a final concentration of 10 μM and the enzyme activity of PAH was analyzed 48 h after transfection. The effect of the compounds on the residual enzyme activity was determined in comparison to non-treated cells (NCC, only compound solvent final 0.1%). To normalize the cellular background signal non transfected cells (NT control) were treated with compound or solvent equally for 48 h. As a positive control we used sepiapterin, a stable precursor of BH4 (CAS 17094-01-8), stabilized in 100 mM DTT, in a final concentration of 5 μM.
(§3) PAH activities were assayed at 25° C. as previously described (Gersting, S. W., J. Biol. Chem., 2010, 285(40), 30686-30697) with modifications. The standard mixture contained 22.35 mM NaHepes, pH 7.0, […] catalase, 10 μM ferrous ammonium sulphate, and 1 mM L-Phe (L-phenylalanine) final. Assay mixture and cell culture enzyme were pre-incubated for 5 min and the reaction was initiated by the addition of 75 μM BH4 (stabilized in 100 mM dithiothreitol) final, run for 60 min and stopped by acetic acid. The amount of L-tyrosine production was measured and quantified by HPLC, assayed as triplicates.
(§4) The effect of compound on PAH enzyme activity was calculated from triplicates as follows: first the background of the NT cells were subtracted from the transfected cells (treated or NCC) and then the percentage of treated (compound) versus NCC was determined. Enzyme activity greater than 100% represents an increase in the enzyme activity with respect to NCC.

For a further assay, the target named is Arg261Gln (R261Q) PAH (Homo sapiens (Human), UniProt P00439, R261Q). The assay is described as above. It is filed as cell-based. The note with it: compound 10 μM (sepiapterin 5 μM), 48 h. As to the method:
as §1, §2, §3, §4

Assay [2] deals with T1, wild-type PAH. The assay can be described thus: Isothermal titration calorimetry. The class given is binding. The note with it: ITC. The source says: 4. Isothermal Titration Calorimetry
Isothermal titration calorimetry (ITC) is a quantitative physical technique used to determine binding affinities of small molecules to proteins or other larger molecules [Freyer M. W. and Lewis E. A., Methods in Cell Biology, 2008, vol. 4, Chapter 4, pages 79-113]. The measurement detects changes of heat generated or absorbed when molecules interact, generate binding kinetics and thermodynamic profile of the molecular interaction. The following parameters are determined: KD (equilibrium dissociation constant), N (stoichiometry of the interaction (mol ligand/mol complex)), ΔH (enthalpy change), ΔG (Gibbs energy), T (temperature) and ΔS (entropy change).
ITC experiments were performed at 25° C. using a MicroCal PEAQ-ITC microcalorimeter (Malvern). PAH proteins were prepared in a HEPES buffer (HEPES 20 mM Hepes, 0.2M NaCl, 1 mM DTT, pH 7.0) containing 5% DMSO, in order to match the final DMSO concentration of the compounds dilutions. The protein concentration used (30 μM) was determined using ultraviolet (UV) absorbance at 280 nm. The compounds ([…]) were prepared using the exact same buffer. Twelve injections of 3 μL of compound/ligand were titrated into the sample cell (containing the protein) over 31 min with a stirring speed of 750 rpm. Data was baseline adjusted by subtracting the background obtained from equivalent injections of compound into the buffer solution. The titration curves were analyzed using MicroCal PEAQ-ITC analytics software (version 1.1.0.1262, Malvern Instruments Ltd.) using a model that assumes a set of identical binding sites where the total heat of the solution is calculated as:
[formula] where n is the number of binding sites, Mt is the total protein concentration in the cell, ΔH is the molar heat of ligand binding, Xt is the total concentration of ligand, and K the binding constant (K=1/KD). The heat released per injection (i), ΔQ(i), is calculated following the equation below, which compensates for the volume that is added in each injection (ΔVi). V0 is the initial volume in the cell.
The parameters, n, K, and ΔH are determined using non-linear square fitting using the Levenberg-Marquardt algorithm.
A general note: In ITC the heat of successive injections is recorded.

Structures are written as SMILES.

T1 sequence (P00439 whole entry): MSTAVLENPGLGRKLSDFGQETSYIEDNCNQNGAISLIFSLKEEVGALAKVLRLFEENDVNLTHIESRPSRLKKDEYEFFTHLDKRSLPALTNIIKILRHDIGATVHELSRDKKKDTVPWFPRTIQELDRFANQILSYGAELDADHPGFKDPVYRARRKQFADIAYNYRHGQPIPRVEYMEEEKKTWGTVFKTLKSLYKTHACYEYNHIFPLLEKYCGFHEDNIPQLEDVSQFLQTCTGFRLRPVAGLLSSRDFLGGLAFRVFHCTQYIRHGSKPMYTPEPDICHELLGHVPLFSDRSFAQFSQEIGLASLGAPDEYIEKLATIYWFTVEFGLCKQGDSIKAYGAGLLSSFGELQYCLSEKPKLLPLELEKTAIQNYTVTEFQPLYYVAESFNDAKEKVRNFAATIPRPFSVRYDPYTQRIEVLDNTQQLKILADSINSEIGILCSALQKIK
Sequence of Arg261Gln (R261Q) PAH (P00439 whole entry R261Q): as the sequence (P00439 whole entry) above, with R261Q counted along it

Regarding `Nc1nc(N)c2nc(-c3ccccc3)c(N)nc2n1` [Triamterene, 2,4,7-triamino-6-phenylpteridine], at wild-type PAH [1], the “PAH enzyme activity (L-Tyrosine formation) WT PAH Mean” value was 118.98 % NCC. Besides, the “PAH enzyme activity (L-Tyrosine formation) R261Q PAH Mean” value on Arg261Gln (R261Q) PAH is recorded as 161.48 % NCC. On wild-type PAH [2] (25° C., WT PAH), the Kd was 3.03 µM, the “N (stoichiometry)” value turned out to be 0.726 ± 0.00 sites, the ΔG is -31.5 kJ/mol and the ΔH was -23.2 ± 0.7 kJ/mol. Besides, the “−TΔS” value at wild-type PAH [2] (25° C., WT PAH) was -8.32 kJ/mol. Besides, the “Kd (in words)” value at wild-type PAH [2] (recombinant PAH) is listed as “low micromolar range”.

For orientation: Kd means the concentration at which binding is half-saturated.

The values above are taken from US12257253B2, “Triamterene or nolatrexed for use in the treatment of phenylketonuria” (SOM INNOVATION BIOTECH, S.A., priority 2019, dated 2025).
